Test results published in US20100010214A1, “LYOPHILIZED PREPARATION OF 1-METHYLCARBAPENEM” (DAIICHI SANKYO COMPANY, LIMITED, priority 2006, published 2010).

Test: Solubility of compound (I) in water at predetermined pH
Assay type: physicochemical
Conditions: water for injection, ice-cold, pH adjusted with HCl/NaOH; solubility increased with decrease in pH
Experimental: Method for Measuring Solubility of Compound (I):
Compound (I) (in an amount so that concentration of compound (I) in the aqueous solution becomes 300 mg/g) is weighed in a beaker. 15 mL of water for injection cooled to 5° C. is added, and the solution is stirred using a stirrer under ice-cold conditions for 30 minutes. While stirring, adjustment to the predetermined pH is conducted by dropwise addition of 1N hydrochloric acid or 1N sodium hydroxide aqueous solution, and the pH is maintained. After stirring is completed, a filtration filter (for example, Ekicrodisc 0.45 μm HT-Tuffryn, Gelman Science Japan, Ltd.) is used for filtration, and the amount of compound (I) in the filtrate is measured by the quantitative HPLC method which is similar to Test Example 1 described later, and thus solubility of compound (I) is obtained.

Compound: C[C@@H](O)[C@H]1C(=O)N2C(C(=O)O)=C(S[C@H]3C[C@@H](C(=O)N4CC[C@H](NC(=O)CNC(=N)N)C4)N(C)C3)[C@H](C)[C@H]12 [Compound (I), (1R,5S,6S)-6-[(1R)-1-hydroxyethyl]-1-methyl-2-[(2S,4S)-2-[(3S)-3-(2-guanidinoacetylamino)pyrrolidin-1-ylcarbonyl]-1-methylpyrrolidin-4-ylthio]-1-carbapen-2-em-3-carboxylic acid]
- Solubility in water: solubility sufficient for the production of the preparation at pH 7 or lower
